Results on 26 compounds are retold here after patent US20240067657A1, “AMIDO-SUBSTITUTED PYRIDYL COMPOUNDS AND METHODS OF USE THEREOF FOR THE TREATMENT OF HERPESVIRUSES” (Merck Sharp & Dohme LLC, priority 2020, published 2024).

Like-named read-outs stand apart in the source and are kept apart here.

In test [1] the target is T1, Human cytomegalovirus DNA polymerase (Human cytomegalovirus, UniProt P08546).
T1 construct: made in house; host or cells: SF21 insect cells (baculovirus vector)
The test can be described thus: HCMV polymerase assay (AlphaLISA, IC50). It counts as biochemical. The following applies: polymerase assay of Example 190. The procedure: Human cytomegalovirus and varicella zoster virus DNA polymerases were expressed via baculovirus vector in SF21 cells and purified. Heterodimeric nucleic acid substrate used in the herpesvirus polymerase reactions was generated by annealing a 59-mer template to a 17-mer digoxigenin-labeled primer. Polymerase (HCMV final concentration of 0.2 nM; VZV final concentration of 0.4 nM) was combined with an inhibitor compound or DMSO in assay buffer (10 mM HEPES, pH 7.5, 25 mM KCl, 25 mM NaCl, 5 mM MgCl2, 5% glycerol, 0.67 mg/ml bovine serum albuminutes, and 1 mM tris(2-carboxyethyl)phosphine), and this mixture was pre-incubated for 30 minutes at room temperature in 384-well microtiter plates. The polymerization reaction was initiated by the addition of template/primer substrate (final concentration: 1.6 nM), and dNTPs (final concentration: 24 nM dCTP, 24 nMdGTP, 16 nM dATP, 16 nM dTTP, and 0.8 nM biotin-dUTP). After 60 minutes incubation at 37° C., reactions were terminated with quench buffer (25 mM HEPES pH 7.5, 100 mM NaCl, 0.25% Tween-20, 12 mM EDTA, and 1 mg/ml bovine serum albumin). Incorporation of biotinylated UTP was detected with 2.5-5 ug/ml anti-DIG AlphaLISA acceptor beads and 5-10 ug/ml streptavidin AlphaLISA donor beads (Perkin Elmer). Compound effects were normalized to the window defined by the controls (DMSO only and pre-quenched wells), and were fit using a 4-parameter algorithm to report an IC50.
On the technique in general: Bead proximity is the source of the signal in Alpha formats.

Test [2] has as its system HSV-1 Strain F in Vero or MRC5 cells. The test can be described thus: Viral qPCR assay HSV-1 (V0/V1, V2/V3), EC50. The test is classed as cell-based. The settings on record: Human alphaherpesvirus 1, MRC5, MRC5 cells, 10%; read-out: HSV1 Cell (EC50) MRC5 10%. The procedure: (§1) Viral qPCR Assays (V0/V1)
(§2) MRC5 cells, Vero cells, and MeWo cells were obtained from ATCC and were maintained at 37° C./5% CO2/90% relative humidity in Minimal Essential Medium with 10% fetal bovine serum, […] L-glutamine, 100 units/ml penicillin and 100 ug/ml streptomycin. Assay plates were prepared by dispensing compounds dissolved in DMSO into wells of 384 well collagen-coated plates using an ECHO acoustic dispenser. Each compound was tested in a 10-point, serial 3-fold dilution. Controls included uninfected cells and infected cells treated only with DMSO. Assays were initiated by mixing selected cells, in suspension, with virus, and dispensing 50 μl/well infected cells to pre-plated compounds. Plates were incubated at 37° C./5% CO2/90% relative humidity for ˜72 hrs to permit genomic replication, and infected cells were lysed by the addition of an equal volume of lysis buffer (10 mM Tris-HCl, pH8, 50 mM KCl, 2 mM MgCl2, 0.45% NP-40, 0.45% Tween-20, and 100 μg/ml proteinase K). An aliquot of the lysate was transferred to a 384-well PCR plate and incubated at 56° C. for 1 hour and then at 95° C. for 10 min. Levels of a viral gene and of the cellular control, PPIA (Thermo Fisher Assay ID=Hs04194521_s1), were measured in separate 10 μL qPCR assays using TaqMan® Gene Expression Master Mix (Applied Biosystems), and an 7900HT Fast Real-Time PCR System with 384-Well Block Module. 7-point, serial 10-fold dilutions of a plasmid standard were run on each plate to generate a standard curve, and genome copies numbers were calculated by plotting experimental Ct onto linear regression of the standard curve. Viral genome copy numbers were normalized by cellular control copy number, and compound effects were normalized to the window defined by the controls. Calculated % effects were fit using a 4-parameter algorithm, and EC50 was reported.
(§3) Viral qPCR Assays (V2/V3)
as §2, with “gene” for “gene and of the cellular control, PPIA (Thermo Fisher Assay ID=Hs04194521_s1),”, “in” for “in separate”, “Compound effects on viral” for “Viral”, “number” for “numbers were normalized by cellular control copy number, and compound effects”, “reported. • HCMV: Strain AD169 Street was assayed in MRC-5 cells and was used at 0.05-0.1 pfu/cell. The assays were performed in either growth media or in the same media with 50% fetal bovine serum. Primer-probe set was Thermo Fisher Assay ID=AIFATFK. • VZV: Strain Street was maintained as an infected cell stock in MRC-5 cells. It was assayed in MeWo or MRC5 cells and was used at 0.04-0.1 pfu/cell. […]” for “reported.”

Test [3] has as its system VZV in MeWo or MRC5 cells. The test can be described thus: Viral qPCR assay VZV (V0/V1, V2/V3), EC50. It counts as cell-based. The settings on record: Human alphaherpesvirus 3, MRC5, MRC5 cells, 10%; read-out: VZV Cell (EC50) MRC5 10%. How it is done: as §1, §2, §3
as §2, with “gene” for “gene and of the cellular control, PPIA (Thermo Fisher Assay ID=Hs04194521_s1),”, “in” for “in separate”, “Compound effects on viral” for “Viral”, “number” for “numbers were normalized by cellular control copy number, and compound effects”, “reported. • HCMV: Strain AD169 Street was assayed in MRC-5 cells and was used at 0.05-0.1 pfu/cell. The assays were performed in either growth media or in the same media with 50% fetal bovine serum. Primer-probe set was Thermo Fisher Assay ID=AIFATFK. • VZV: Strain Street was maintained as an infected cell stock in MRC-5 cells. It was assayed in MeWo or MRC5 cells and was used at 0.04-0.1 pfu/cell. […]” for “reported.”
On the technique in general: Quantitative PCR measures a nucleic acid by following its amplification.

The test system of test [4] is HCMV Strain AD169 in MRC-5 cells. The test can be described thus: Viral qPCR assay HCMV (V0/V1, V2/V3), EC50. The test is classed as cell-based. How it is done: as §1, §2, §3
as §2, with “gene” for “gene and of the cellular control, PPIA (Thermo Fisher Assay ID=Hs04194521_s1),”, “in” for “in separate”, “Compound effects on viral” for “Viral”, “number” for “numbers were normalized by cellular control copy number, and compound effects”, “reported. • HCMV: Strain AD169 Street was assayed in MRC-5 cells and was used at 0.05-0.1 pfu/cell. The assays were performed in either growth media or in the same media with 50% fetal bovine serum. Primer-probe set was Thermo Fisher Assay ID=AIFATFK. • VZV: Strain Street was maintained as an infected cell stock in MRC-5 cells. It was assayed in MeWo or MRC5 cells and was used at 0.04-0.1 pfu/cell. […]” for “reported.”

[5] abbreviates: Human betaherpesvirus 5, AD169, MRC5, viral qPCR assay of Example 191, read-out: HCMV Cell (EC50).

T1 sequence (P08546 whole entry): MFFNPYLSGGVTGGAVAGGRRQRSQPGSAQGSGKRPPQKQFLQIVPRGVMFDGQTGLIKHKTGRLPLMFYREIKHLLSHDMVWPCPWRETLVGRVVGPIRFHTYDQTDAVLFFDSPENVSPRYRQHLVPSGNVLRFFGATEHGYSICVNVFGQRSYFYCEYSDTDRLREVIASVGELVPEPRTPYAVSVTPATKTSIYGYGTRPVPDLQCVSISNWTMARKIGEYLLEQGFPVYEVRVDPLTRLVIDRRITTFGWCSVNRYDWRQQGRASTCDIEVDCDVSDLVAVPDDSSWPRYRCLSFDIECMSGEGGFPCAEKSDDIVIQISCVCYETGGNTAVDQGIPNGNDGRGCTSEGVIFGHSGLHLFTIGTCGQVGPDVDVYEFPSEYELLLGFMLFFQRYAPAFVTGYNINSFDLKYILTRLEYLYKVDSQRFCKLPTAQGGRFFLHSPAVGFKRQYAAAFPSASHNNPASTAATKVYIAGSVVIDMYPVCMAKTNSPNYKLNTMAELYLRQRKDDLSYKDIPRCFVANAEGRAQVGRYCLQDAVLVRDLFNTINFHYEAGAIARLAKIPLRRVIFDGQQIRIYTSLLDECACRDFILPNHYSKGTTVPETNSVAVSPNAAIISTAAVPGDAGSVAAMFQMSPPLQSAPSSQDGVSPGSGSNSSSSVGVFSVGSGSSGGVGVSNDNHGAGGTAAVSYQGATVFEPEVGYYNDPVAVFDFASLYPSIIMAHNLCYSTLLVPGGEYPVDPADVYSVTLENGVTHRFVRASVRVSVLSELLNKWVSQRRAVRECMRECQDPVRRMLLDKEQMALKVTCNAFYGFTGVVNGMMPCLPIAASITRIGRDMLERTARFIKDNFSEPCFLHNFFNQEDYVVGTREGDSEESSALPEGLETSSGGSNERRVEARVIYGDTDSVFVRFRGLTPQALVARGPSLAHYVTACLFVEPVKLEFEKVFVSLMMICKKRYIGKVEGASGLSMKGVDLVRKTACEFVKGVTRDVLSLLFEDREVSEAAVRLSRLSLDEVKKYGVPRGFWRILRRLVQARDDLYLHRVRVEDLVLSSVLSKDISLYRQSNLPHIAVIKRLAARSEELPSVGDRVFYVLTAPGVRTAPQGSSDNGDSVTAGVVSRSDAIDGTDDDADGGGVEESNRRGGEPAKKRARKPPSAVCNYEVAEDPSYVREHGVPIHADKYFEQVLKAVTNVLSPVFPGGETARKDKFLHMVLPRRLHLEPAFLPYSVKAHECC

The IC50 is the concentration that gives 50% inhibition. A high value points to a need for much substance. For orientation: EC50 means the midpoint of the concentration-response curve. Take `O=C(NCc1ccc(Cl)cc1Cl)c1cc(O[C@H]2CCN3C(=O)OC[C@@H]3C2)c(-c2cnn(C(F)F)c2)cn1` [Compound 85]: the IC50 in test [1] is 65.3 nM. Moreover, the figures for the EC50 in test [2], in test [3] and in test [4] (setting [5]) were 1640 nM, 4710 nM and 888 nM, respectively.
Taken in the same sequence, the figures for `C#Cc1ccc(CNC(=O)c2cc(O[C@H]3CCN4C(=O)OC[C@@H]4C3)c(-c3cnn(C(F)F)c3)cn2)cc1` [Compound 88] were 184 nM, 785 nM, 1180 nM and 616 nM.
Consider `C[C@@H]1CN(c2cnc(C(=O)NCc3ccc(Cl)cc3)cc2O[C@H]2CCN3C(=O)OC[C@@H]3C2)C[C@H](C)[C@]1(C)O` [Compound 124], for which half-maximal inhibition in test [1] (IC50) required 172 nM. Moreover, the EC50 in test [2] stood at 2850 nM; in test [3], 6050 nM; in test [4] (setting [5]), 1270 nM.
Taken in the same sequence, the figures for `O=C(c1cc(O[C@H]2CCN3C(=O)OC[C@@H]3C2)c(-c2cnn(C(F)F)c2)cn1)N(CO)Cc1ccc(Cl)cc1` [Compound 180] were 29.2 nM, 176 nM, 265 nM and 183 nM.
In the case of `CC(=O)N1CCC(Oc2cc(C(=O)NCc3ccc(Cl)cc3)ncc2-c2ccsn2)CC1` [Compound 60], inhibition in test [1] was half-maximal at 197 nM (IC50). Besides, in test [4] (setting [5]), the 50% effective concentration (EC50) is 1490 nM.
Taken in the same sequence, the figures for `CC(=O)N1CCC(Oc2cc(C(=O)NCc3ccc(Cl)cc3)ncc2-c2cnsc2)CC1` [Compound 47] were 136 nM and 1160 nM.
Taken in the same sequence, the figures for `CC(C)(O)C12CC(C1)N(c1cnc(C(=O)NCc3ccc(Cl)cc3)cc1O[C@H]1CCN3C(=O)OC[C@@H]3C1)C2` [Compound 123] were 160 nM and 1310 nM.
Taken in the same sequence, the figures for `CC(C)(N)C1CCN(c2cnc(C(=O)NCc3ccc(Cl)cc3)cc2O[C@H]2CCN3C(=O)OC[C@@H]3C2)C1` (some centres unmarked) [Compound 119] were 65.2 nM and 747 nM.
On to `O=C(NCc1cc(F)c(Cl)c(F)c1)c1cc(O[C@H]2CCN3C(=O)OC[C@@H]3C2)c(-c2cnn(C(F)F)c2)cn1` [Compound 80], for which it took 8.76 nM to reach half-maximal inhibition in test [1] (IC50). For the same compound, the figures for the half-maximal effective concentration (EC50) in test [2], in test [3] and in test [4] (setting [5]) were 247 nM, 401 nM and 248 nM, respectively.
`CN1CCN(c2cc(C(=O)NCc3ccc(Cl)cc3)ncc2C#N)[C@H](CF)C1` [Compound 173] registered a half-maximal inhibitory concentration (IC50) in test [1] of 12.3 nM. Also, the concentration giving a half-maximal response (EC50) in test [2] came out at 833 nM; in test [3], 682 nM; in test [4] (setting [5]), 279 nM.
Taken in the same sequence, the figures for `N#Cc1cc(O[C@H]2CCN3C(=O)OC[C@@H]3C2)cc(C(=O)NCc2ccc(Cl)cc2)n1` [Compound 128] were 169 nM, 8330 nM, 5340 nM and 1780 nM.
`CN1CCC(C(=O)OCN(Cc2ccc(Cl)cc2)C(=O)c2cc(O[C@H]3CCN4C(=O)OC[C@@H]4C3)c(-c3cnn(C(F)F)c3)cn2)CC1` [Compound 183] displayed an IC50 in test [1] of 201 nM. Also, in test [4] (setting [5]), the EC50 was determined as 150 nM.
In test [1], `CC(=O)N1CCC(Oc2cc(C(=O)NCc3ccc(Cl)cc3)ncc2-c2nnc(C)o2)CC1` [Compound 153] had an IC50 of 66.2 nM. Moreover, the results for the EC50 in test [2], in test [3] and in test [4] (setting [5]) were 636 nM, 913 nM and 478 nM, respectively.
Compound `CS(=O)(=O)c1cnc(C(=O)NCc2ccc(Cl)cc2)cc1O[C@H]1CCN2C(=O)OC[C@@H]2C1` [Compound 147] yielded a concentration for half-maximal inhibition (IC50) in test [1] of 804 nM. The EC50 in test [4] (setting [5]) came out at 12700 nM.
Taken in the same sequence, the figures for `CC(=O)N1CCC(Oc2cc(C(=O)NCc3ccc(Cl)cc3)ncc2-c2cnoc2)CC1` [Compound 53] were 56.5 nM and 1840 nM.
Taken in the same sequence, the figures for `CC(=O)N1CCC(Oc2cc(C(=O)NCc3ccc(Cl)cc3)ncc2-c2cn(C)c(CCO)n2)CC1` [Compound 55] were 65.4 nM and 781 nM.
Taken in the same sequence, the figures for `CC(C)(O)C1CN(c2cnc(C(=O)NCc3ccc(Cl)cc3)cc2O[C@H]2CCN3C(=O)OC[C@@H]3C2)C1` [Compound 121] were 36.5 nM and 257 nM.
In test [1], `O=C(NCc1ccc(Cl)cc1)c1cc(O[C@H]2CCN3C(=O)OC[C@@H]3C2)c(N2CC3(CC(O)C3)C2)cn1` [Compound 118] displayed an IC50 of 38.8 nM. The EC50 in test [4] (setting [5]) is 579 nM.
Compound `C[C@@H]1CN(C)CCN1c1cc(C(=O)NCc2ccc(Cl)cc2)nc(-c2cnn(CCO)c2)c1` [Compound 177] registered an IC50 in test [1] of 601 nM. In addition, the half-maximal effective concentration (EC50) in test [4] (Human betaherpesvirus 5, AD169, MRC5, read-out: HCMV Cell (EC50)) is 1410 nM.
`Cc1cnc(C(=O)NCc2ccc(Cl)cc2)cc1OC1CCC(=O)N(C)CC1` (centres unmarked) [Compound 99]: the half-inhibitory concentration (IC50) in test [1] turned out to be 407 nM. For the same compound, in test [4] (setting [5]), the EC50 amounted to 4010 nM.
As for `CC(=O)N1CCC(Oc2cc(C(=O)NCc3ccc(Cl)cc3)ncc2-c2cnsn2)CC1` [Compound 58], it took 155 nM to reach half-maximal inhibition in test [1] (IC50). Besides, the EC50 in test [4] (setting [5]) was 1810 nM.
Taken in the same sequence, the figures for `COCCOC(=O)N(Cc1ccc(Cl)cc1)C(=O)c1cc(O[C@H]2CCN3C(=O)OC[C@@H]3C2)c(-c2cnn(C(F)F)c2)cn1` [Compound 179] were 107 nM and 1390 nM.
Taken in the same sequence, the figures for `O=C(NCc1ccc(I)cc1)c1cc(O[C@H]2CCN3C(=O)OC[C@@H]3C2)c(-c2cnn(C(F)F)c2)cn1` [Compound 89] were 187 nM and 1520 nM.
`CC(=O)N1CCC(Oc2cc(C(=O)NCc3ccc(Cl)cc3)ncc2-c2cn(C)nn2)CC1` [Compound 59] showed a half-maximal inhibitory concentration (IC50) in test [1] of 151 nM. Also, the half-maximal effective concentration (EC50) in test [4] (setting [5]) was 976 nM.
Taken in the same sequence, the figures for `CC(=O)N1CCC(Oc2cc(C(=O)NCc3ccc(Cl)cc3)ncc2-c2cnn(C(F)F)c2)CC12CC2` (centres unmarked) [Compound 160] were 135 nM and 1400 nM.
Taken in the same sequence, the figures for `O=C(NCc1ccc(C(F)(F)F)cc1)c1cc(O[C@H]2CCN3C(=O)OC[C@@H]3C2)c(-c2cnn(C(F)F)c2)cn1` [Compound 104] were 273 nM and 5980 nM.
